Data on 5 compounds can be found in patent US20100029636A1, “Lck inhibitors” (priority 2006, published 2010).

Chain of Lck (P06239 whole entry, species assumed): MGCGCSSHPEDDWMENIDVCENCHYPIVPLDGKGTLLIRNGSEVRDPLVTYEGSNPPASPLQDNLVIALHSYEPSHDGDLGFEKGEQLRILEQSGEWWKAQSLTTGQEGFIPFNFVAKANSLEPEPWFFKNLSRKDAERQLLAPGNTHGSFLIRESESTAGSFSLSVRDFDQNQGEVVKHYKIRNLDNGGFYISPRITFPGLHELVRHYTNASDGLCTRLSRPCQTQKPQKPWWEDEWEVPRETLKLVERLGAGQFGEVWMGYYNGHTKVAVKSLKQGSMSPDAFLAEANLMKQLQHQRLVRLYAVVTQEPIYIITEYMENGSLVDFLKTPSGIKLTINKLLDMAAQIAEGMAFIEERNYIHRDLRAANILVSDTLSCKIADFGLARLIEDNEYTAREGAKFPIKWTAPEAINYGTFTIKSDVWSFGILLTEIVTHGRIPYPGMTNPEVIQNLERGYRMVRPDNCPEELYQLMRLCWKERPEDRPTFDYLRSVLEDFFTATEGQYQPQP

One assay addresses Lck (Homo sapiens, UniProt P06239). Briefly: Biochemical Lck kinase assay (TR-FRET, LANCE).
Settings: not given
The compound `Cc1cccc(OC(=O)Nc2ccc(-c3cnc4c(-c5cccc(N6CCN(C)CC6)c5)cnn4c3N)cc2)c1C` [Example 65] showed an IC50 of 0.025 µM.
The same measure, in the same setting: then `CC(C)COC(=O)Nc1ccc(-c2cnc3c(-c4ccc(N5CCN(C)CC5)cc4)cnn3c2N)cc1` [Example 10, (4-{7-Amino-3-[4-(4-methyl-piperazin-1-yl)-phenyl]-pyrazolo[1,5-a]pyrimidin-6-yl}-phenyl)-carbamic acid isobutyl ester], with 0.01 µM; and `Cc1ccc(NC(=O)Nc2ccc(-c3cnc4c(-c5cccc(N6CCN(C)CC6)c5)cnn4c3N)cc2)cc1` [Example 126], with 0.015 µM; and `CCc1ccc(OC(=O)Nc2ccc(-c3cnc4c(-c5cccc(N6CCN(C)CC6)c5)cnn4c3N)cc2)cc1` [Example 77], with 0.025 µM.
Same read-out and setting: then `Cc1ccc([C@H](C)NC(=O)Nc2ccc(-c3cnc4c(-c5cccc(N6CCN(C)CC6)c5)cnn4c3N)cc2)cc1` [Example 172], with 0.034 µM.

Another assay relates to blood IL-2 levels induced by SEB. Briefly: In vivo model: mouse SEB/IL-2. Also on record: species or system BALB/c mice. The following applies: 100 mg/kg po, serum IL-2 two hours after SEB. How it is done:
The compound to be tested is administered to BALB/c mice followed e.g. 1 h later, by an intravenous administration of 3 µg per mouse of SEB to induce a rise in blood IL-2 levels. Two hours after the administration of SEB, mice are bled, and levels of IL-2 are measured in the serum using standard methods. Under control conditions (vehicle only) IL-2 concentrations measured are mostly in the range of 2000 to 8000 pg/ml.
For `CC(C)COC(=O)Nc1ccc(-c2cnc3c(-c4ccc(N5CCN(C)CC5)cc4)cnn3c2N)cc1` [Example 10, (4-{7-Amino-3-[4-(4-methyl-piperazin-1-yl)-phenyl]-pyrazolo[1,5-a]pyrimidin-6-yl}-phenyl)-carbamic acid isobutyl ester], the “inhibits the secretion of IL-2” value was 59%.
